Organism: Rattus norvegicus
Test: Open TG-GATES - Regimen: Daily Repeat
Type: toxicity, organism-based, Sprague-Dawley
Design: regimen Daily Repeat, gender Male, age 6 weeks
Conditions: in vivo, po, route gavage; for Bas / Eos / Fbg / Hb / MCH / MCHC / MCV / Mono / Neu / Plat / RBC / Ret / WBC / APTT / Ht / Lym / PT: tissue Blood; for KIDNEY_L / KIDNEY_R / KIDNEY_TOTAL: tissue Kidney; for LIVER: tissue Liver; for ALP / ALT / AST / BUN / CRE / Ca / DBIL / GLC / IP / K / LDH / Na / PL / RALB / TBIL / TC / TP / gamma-GTP / TG: tissue Plasma
[1] = 0 mg/kg, 72 h, dose level Control, time 3 day
[2] = 0 mg/kg, […], dose level Control, time 7 day
[3] = 0 mg/kg, […], dose level Control, time 14 day
[4] = 0 mg/kg, […], dose level Control, time 28 day
[5] = 100 mg/kg, 72 h, dose level Low, time 3 day
[6] = 100 mg/kg, […], dose level Low, time 7 day
[7] = 100 mg/kg, […], dose level Low, time 14 day
[8] = 100 mg/kg, […], dose level Low, time 28 day

O=C(O)c1cn(C2CC2)c2cc(N3CCNCC3)c(F)cc2c1=O [CIPROFLOXACIN]
TERMINAL_BW [1]: 198.1 g
Bas [1]: 0%
Eos [1]: 1.2%
Fbg [1]: 228 mg/dL
Hb [1]: 13.2 g/dL
MCH [1]: 22.2 pg
MCHC [1]: 33.5%
MCV [1]: 66.2 fL
Mono [1]: 7.6%
Neu [1]: 12%
Plat [1]: 99.9 x10_4/uL
RBC [1]: 595 x10_4/ul
Ret [1]: 8.5%
WBC [1]: 105.1 x10_2/uL
KIDNEY_L [1]: 0.9 g
KIDNEY_R [1]: 0.9 g
KIDNEY_TOTAL [1]: 1.8 g
LIVER [1]: 9.9 g
ALP [1]: 993.2 IU/L
ALT [1]: 38.8 IU/L
AST [1]: 66 IU/L
BUN [1]: 17.2 mg/dL
CRE [1]: 0.5 mg/dL
Ca [1]: 11.4 mg/dL
DBIL [1]: 0.002 mg/dL
GLC [1]: 182 mg/dL
IP [1]: 7.9 mg/dL
K [1]: 5.1 meq/L
LDH [1]: 88.4 IU/L
Na [1]: 139.4 meq/L
PL [1]: 157 mg/dL
RALB [1]: 4 g/dL
TBIL [1]: 0.3 mg/dL
TC [1]: 84 mg/dL
TP [1]: 5.9 g/dL
gamma-GTP [1]: 1.8 IU/L
TERMINAL_BW [2]: 237.8 g
TERMINAL_BW [3]: 285 g
TERMINAL_BW [4]: 358.5 g
APTT [2]: 16.9 s
Bas [2]: 0%
Eos [2]: 0.8%
Fbg [2]: 230.2 mg/dL
Hb [2]: 12.6 g/dL
Ht [2]: 39.6%
Lym [2]: 82.2%
MCH [2]: 20.8 pg
MCHC [2]: 31.8%
MCV [2]: 65.5 fL
Mono [2]: 7%
Neu [2]: 10%
PT [2]: 11.9 s
Plat [2]: 101.9 x10_4/uL
RBC [2]: 605.2 x10_4/ul
Ret [2]: 6.9%
WBC [2]: 121.2 x10_2/uL
APTT [3]: 16.4 s
Bas [3]: 0%
Eos [3]: 1%
Fbg [3]: 250.2 mg/dL
Hb [3]: 14 g/dL
Ht [3]: 42.3%
MCH [3]: 21 pg
MCHC [3]: 33.1%
MCV [3]: 63.3 fL
Mono [3]: 4.4%
Neu [3]: 11%
PT [3]: 9.8 s
Plat [3]: 111.2 x10_4/uL
RBC [3]: 669.4 x10_4/ul
Ret [3]: 5.7%
WBC [3]: 131.2 x10_2/uL
APTT [4]: 17.2 s
Bas [4]: 0%
Eos [4]: 1%
Fbg [4]: 235.2 mg/dL
Hb [4]: 14.8 g/dL
Ht [4]: 44%
MCH [4]: 19.4 pg
MCHC [4]: 33.6%
MCV [4]: 57.8 fL
Mono [4]: 3.4%
Neu [4]: 11%
PT [4]: 11.3 s
Plat [4]: 107.5 x10_4/uL
RBC [4]: 762.2 x10_4/ul
Ret [4]: 2.8%
WBC [4]: 132.8 x10_2/uL
KIDNEY_L [2]: 1.1 g
KIDNEY_R [2]: 1.1 g
KIDNEY_TOTAL [2]: 2.1 g
KIDNEY_L [3]: 1.2 g
KIDNEY_R [3]: 1.2 g
KIDNEY_TOTAL [3]: 2.4 g
KIDNEY_L [4]: 1.3 g
KIDNEY_R [4]: 1.3 g
KIDNEY_TOTAL [4]: 2.5 g
LIVER [2]: 11.7 g
LIVER [3]: 13.3 g
ALP [2]: 938.8 IU/L
ALT [2]: 31.6 IU/L
AST [2]: 61.8 IU/L
BUN [2]: 19.6 mg/dL
CRE [2]: 0.5 mg/dL
Ca [2]: 11.3 mg/dL
DBIL [2]: 0.01 mg/dL
GLC [2]: 186.8 mg/dL
IP [2]: 8.6 mg/dL
K [2]: 5 meq/L
LDH [2]: 67 IU/L
Na [2]: 140.6 meq/L
PL [2]: 158.4 mg/dL
RALB [2]: 3.9 g/dL
TBIL [2]: 0.3 mg/dL
TC [2]: 90.2 mg/dL
TG [2]: 93.6 mg/dL
TP [2]: 5.7 g/dL
gamma-GTP [2]: 1.2 IU/L
ALP [3]: 844.4 IU/L
ALT [3]: 31.4 IU/L
AST [3]: 58.4 IU/L
BUN [3]: 18.8 mg/dL
CRE [3]: 0.6 mg/dL
DBIL [3]: 0.006 mg/dL
GLC [3]: 185.6 mg/dL
IP [3]: 7.9 mg/dL
K [3]: 4.7 meq/L
LDH [3]: 80.6 IU/L
Na [3]: 138.8 meq/L
PL [3]: 172.8 mg/dL
RALB [3]: 4.1 g/dL
TBIL [3]: 0.2 mg/dL
TC [3]: 82.2 mg/dL
TG [3]: 150.6 mg/dL
TP [3]: 6.3 g/dL
gamma-GTP [3]: 1.2 IU/L
ALP [4]: 566.6 IU/L
ALT [4]: 28.8 IU/L
AST [4]: 57.6 IU/L
BUN [4]: 18.8 mg/dL
CRE [4]: 0.4 mg/dL
Ca [4]: 10.7 mg/dL
DBIL [4]: 0.048 mg/dL
GLC [4]: 195.6 mg/dL
IP [4]: 7 mg/dL
K [4]: 4.3 meq/L
LDH [4]: 94.4 IU/L
Na [4]: 140.2 meq/L
PL [4]: 150.6 mg/dL
RALB [4]: 4.1 g/dL
TBIL [4]: 0.3 mg/dL
TC [4]: 75.4 mg/dL
TG [4]: 126.4 mg/dL
TP [4]: 6.6 g/dL
gamma-GTP [4]: 1.4 IU/L
TERMINAL_BW [5]: 197.9 g
APTT [5]: 16.8 s
Bas [5]: 0%
Eos [5]: 1%
Fbg [5]: 236.3 mg/dL
Hb [5]: 13.2 g/dL
Ht [5]: 39.6%
MCV [5]: 63.9 fL
Mono [5]: 6.2%
Neu [5]: 13%
Plat [5]: 90 x10_4/uL
RBC [5]: 621.4 x10_4/ul
Ret [5]: 6.4%
WBC [5]: 94.6 x10_2/uL
KIDNEY_L [5]: 0.9 g
KIDNEY_R [5]: 0.9 g
KIDNEY_TOTAL [5]: 1.8 g
LIVER [5]: 8.9 g
ALP [5]: 806.8 IU/L
ALT [5]: 44.4 IU/L
AST [5]: 64 IU/L
CRE [5]: 0.5 mg/dL
DBIL [5]: 0.012 mg/dL
GLC [5]: 182 mg/dL
IP [5]: 8.4 mg/dL
K [5]: 5.3 meq/L
LDH [5]: 83.2 IU/L
Na [5]: 139 meq/L
PL [5]: 140.6 mg/dL
RALB [5]: 3.8 g/dL
TBIL [5]: 0.3 mg/dL
TC [5]: 78.6 mg/dL
TG [5]: 76.6 mg/dL
TP [5]: 5.6 g/dL
gamma-GTP [5]: 1.6 IU/L
TERMINAL_BW [6]: 227.7 g
TERMINAL_BW [7]: 280.3 g
TERMINAL_BW [8]: 387.5 g
Bas [6]: 0%
Eos [6]: 0.8%
Fbg [6]: 221.6 mg/dL
Hb [6]: 12.9 g/dL
Ht [6]: 38.6%
Lym [6]: 80%
MCH [6]: 21.2 pg
MCV [6]: 63.8 fL
Mono [6]: 5.8%
Neu [6]: 13.8%
Plat [6]: 94 x10_4/uL
RBC [6]: 605.6 x10_4/ul
Ret [6]: 6.4%
WBC [6]: 126.8 x10_2/uL
APTT [7]: 16.3 s
Bas [7]: 0%
Eos [7]: 0.8%
Fbg [7]: 243.6 mg/dL
Hb [7]: 14 g/dL
Ht [7]: 41.8%
Lym [7]: 85.8%
MCHC [7]: 33.4%
MCV [7]: 61.8 fL
Mono [7]: 5.4%
Neu [7]: 8.2%
PT [7]: 10.2 s
Plat [7]: 102.2 x10_4/uL
RBC [7]: 678.2 x10_4/ul
Ret [7]: 6.3%
WBC [7]: 155.4 x10_2/uL
APTT [8]: 17.3 s
Bas [8]: 0%
Eos [8]: 1%
Fbg [8]: 233.2 mg/dL
Hb [8]: 14.7 g/dL
Ht [8]: 44.2%
Lym [8]: 85.2%
MCH [8]: 19.8 pg
MCHC [8]: 33.4%
MCV [8]: 59.3 fL
Mono [8]: 4.4%
Neu [8]: 9.4%
PT [8]: 11.4 s
Plat [8]: 105.1 x10_4/uL
RBC [8]: 746.2 x10_4/ul
Ret [8]: 3%
WBC [8]: 131.4 x10_2/uL
KIDNEY_L [6]: 1 g
KIDNEY_R [6]: 1 g
KIDNEY_TOTAL [6]: 2.1 g
KIDNEY_L [7]: 1.1 g
KIDNEY_R [7]: 1.1 g
KIDNEY_TOTAL [7]: 2.3 g
KIDNEY_L [8]: 1.4 g
KIDNEY_R [8]: 1.4 g
KIDNEY_TOTAL [8]: 2.8 g
LIVER [6]: 10.7 g
LIVER [8]: 15.3 g
ALP [6]: 932.4 IU/L
ALT [6]: 37.2 IU/L
AST [6]: 65.8 IU/L
BUN [6]: 18.2 mg/dL
CRE [6]: 0.5 mg/dL
Ca [6]: 11.4 mg/dL
DBIL [6]: 0 mg/dL
GLC [6]: 184 mg/dL
IP [6]: 8.4 mg/dL
K [6]: 4.9 meq/L
LDH [6]: 56 IU/L
Na [6]: 139.8 meq/L
PL [6]: 149.8 mg/dL
RALB [6]: 3.9 g/dL
TBIL [6]: 0.3 mg/dL
TG [6]: 74.8 mg/dL
TP [6]: 5.8 g/dL
gamma-GTP [6]: 1.6 IU/L
ALP [7]: 887.8 IU/L
ALT [7]: 33 IU/L
AST [7]: 66.4 IU/L
BUN [7]: 21.2 mg/dL
CRE [7]: 0.5 mg/dL
Ca [7]: 10.9 mg/dL
DBIL [7]: 0.022 mg/dL
GLC [7]: 195.6 mg/dL
IP [7]: 8.4 mg/dL
K [7]: 4.9 meq/L
LDH [7]: 88 IU/L
Na [7]: 139.2 meq/L
PL [7]: 175 mg/dL
RALB [7]: 4 g/dL
TBIL [7]: 0.3 mg/dL
TC [7]: 89 mg/dL
TG [7]: 128 mg/dL
TP [7]: 6.1 g/dL
gamma-GTP [7]: 2.2 IU/L
ALP [8]: 630 IU/L
ALT [8]: 29 IU/L
AST [8]: 54.2 IU/L
BUN [8]: 17.8 mg/dL
CRE [8]: 0.4 mg/dL
Ca [8]: 11 mg/dL
DBIL [8]: 0.024 mg/dL
GLC [8]: 185.4 mg/dL
IP [8]: 7.5 mg/dL
K [8]: 4.6 meq/L
LDH [8]: 75.6 IU/L
Na [8]: 140 meq/L
PL [8]: 141.6 mg/dL
RALB [8]: 4 g/dL
TBIL [8]: 0.3 mg/dL
TC [8]: 72.8 mg/dL
TG [8]: 108.8 mg/dL
TP [8]: 6.4 g/dL
gamma-GTP [8]: 1.4 IU/L
TERMINAL_BW (300 mg/kg, 72 h, dose level Middle, time 3 day): 198.3 g

Source: ChEMBL document CHEMBL3885861, “Open TG-GATES”
